Values of other authors as cited in US20020132021A1, “Elicited plant products” (priority 1997, published 2002).

Tested on: indole alkaloid pathway
Conditions: jasmonic acid addition, dosage studies

CC/C=C\C[C@H]1C(=O)CC[C@@H]1CC(=O)O [Jasmonic acid]
increase in the specific yield of ajmalicine: 80% | increase in the specific yield of horhammericine: 500% | increase in the specific yield of lochnericine: 150% | increase in the specific yield of serpentine: 60%
